# Laboratory results as given in patent US12162876B2, “Indazole kinase inhibitor and use thereof” (Tarapeutics Science Inc., priority 2018, dated 2024).
# How the values were obtained:
# Assay type in all cases: cell-based
# TEL-PDGFRβ-BaF3 = assay: Cell proliferation (CCK-8, 72 h), TEL-PDGFRβ-BaF3; conditions: Mus musculus, BaF3 expressing PDGFRβ kinase
# Description: (§1) In this example, human gastrointestinal stromal tumor cell line GIST-T1 (expressing wild-type C-KIT gene) (purchased from Cosmo Bio Co., Ltd. (Japan)), human gastrointestinal stromal tumor cell line GIST-T1-T670I (expressing C-KIT-T670I mutant gene) (constructed by our laboratory with CRISPR technology), mouse […] BaF3 (purchased from ATCC) were used. In addition, in this Example, mouse Tel-cKit-BaF3 (stably expressing C-KIT wild-type kinase), mouse Tel-cKit/T670I-BaF3 (stably expressing cKIT T670I mutant kinase), mouse Tel-PDGFRα-BaF3 (stably expressing PDGFRα kinase), mouse Tel-PDGFRβ-BaF3 (stably expressing PDGFRβ kinase), mouse Tel-VEGFR2-BaF3 (stably expressing VEGFR2 kinase), mouse Tel-FLT3-BaF3 (stably expressing FLT3 kinase) were also used. The above cell lines were all constructed by our laboratory. The construction method was as follows: the human C-KIT, C-KIT T670I, PDGFRα, PDGFRβ, VEGFR2, FLT3 kinase region sequences were amplified by PCR respectively and inserted into MSCV-Puro vector (purchased from Clontech) with N-terminal TEL fragment and/or NPM fragment and/or TPR fragment respectively, which was stably transferred into mouse BaF3 cells by retroviral method, and IL-3 growth factor was removed, and finally the cell lines in which protein was transferred depending on C-KIT, C-KIT/T670I, PDGFRα, PDGFRβ, VEGFR2, FLT3 were obtained. The GIST-T1-T670I (expressing C-KIT-T670I mutant gene) cell line was constructed by our laboratory. The construction method was as follows: the sgRNA targeting near the T670 site of the KIT gene was designed by the CRISPR design tool of the Zhang Feng Laboratory of the Massachusetts Institute of Technology (URL: crispr.mit.edu) and cloned into pSpCas9(BB)-2A-Puro vector (Addgene, USA); the obtained vector and a single-stranded oligonucleotide with T670I mutation near the T670 site were co-transfected into the cells, and after antibiotic selection, they were diluted and cultured in a single cell in a 96-well plate; the T670 site of the cells was sequenced and verified by the Sanger sequencing method.
# TEL-cKIT/T670I-BaF3 = assay: Cell proliferation (CCK-8, 72 h), TEL-cKIT/T670I-BaF3; conditions: Mus musculus; BaF3 expressing cKIT T670I mutant kinase, 72 h, CCK-8; read-out: GI50 TEL-cKIT/T670I-BaF3
# Description: as §1
# TEL-PDGFRα-BaF3 = assay: Cell proliferation (CCK-8, 72 h), TEL-PDGFRα-BaF3; conditions: Mus musculus, BaF3 expressing PDGFRα kinase
# Description: as §1
# BaF3 = assay: Cell proliferation (CCK-8, 72 h), parental BaF3; conditions: Mus musculus, parental BaF3 cells
# Description: as §1
# TEL-cKIT-BaF3 = assay: Cell proliferation (CCK-8, 72 h), TEL-cKIT-BaF3; conditions: Mus musculus, BaF3 expressing wild-type C-KIT kinase
# Description: as §1
# TEL-FLT3-BaF3 = assay: Cell proliferation (CCK-8, 72 h), TEL-FLT3-BaF3; conditions: Mus musculus, BaF3 expressing FLT3 kinase
# Description: as §1
# TEL-VEGFR2-BaF3 = assay: Cell proliferation (CCK-8, 72 h), TEL-VEGFR2-BaF3; conditions: Mus musculus, BaF3 expressing VEGFR2 kinase
# Description: as §1
GI50 (TEL-PDGFRβ-BaF3),GI50 (TEL-cKIT/T670I-BaF3),GI50 (TEL-PDGFRα-BaF3),GI50 (TEL-cKIT-BaF3),GI50 (TEL-FLT3-BaF3),GI50 (TEL-VEGFR2-BaF3),Compound,GI50 (BaF3)
0.002 µM,0.048 µM,0.0014 µM,0.02 µM,0.3 µM,< 0.0001 µM,"CNC(=O)c1ccccc1Sc1ccc2c(/C=C/c3ccccn3)n[nH]c2c1 [Axitinib, reference compound]",0.43 µM
0.003 µM,0.003 µM,0.001 µM,0.024 µM,< 0.001 µM,0.016 µM,"Cc1nc(NC(=O)c2ccc(CN3CCN(C)CC3)cc2)sc1-c1ccc2c(/C=C/c3ccccn3)n[nH]c2c1 [Compound 1, (E)-N-(4-methyl-5-(3-(2-(pyridin-2-yl)vinyl)-1H-indazol-6-yl)thiazol-2-yl)-4-((4-methylpiperazin-1-yl)methyl)benzamide]",0.058 µM
0.013 µM,0.084 µM,0.002 µM,0.135 µM,0.004 µM,0.04 µM,"Cc1nc(NC(=O)c2ccc(Cl)c(C(F)(F)F)c2)sc1-c1ccc2c(/C=C/c3ccccn3)n[nH]c2c1 [Compound 2, (E)-4-chloro-N-(4-methyl-5-(3-(2-(pyridin-2-yl)vinyl)-1H-indazol-6-yl)thiazol-2-yl)-3-(trifluoromethyl)benzamide]",> 10 µM
,0.019 µM,0.0012 µM,0.216 µM,0.0004 µM,0.019 µM,"COc1ccc(CC(=O)Nc2nc(C)c(-c3ccc4c(/C=C/c5ccccn5)n[nH]c4c3)s2)cc1OC [Compound 8, (E)-2-(3,4-methoxyphenyl)-N-(4-methyl-5-(3-(2-(pyridin-2-yl)vinyl)-1H-indazol-6-yl)thiazol-2-yl)acetamide]",4.87 µM
,0.037 µM,0.0013 µM,0.07 µM,0.002 µM,0.0098 µM,"Cc1nc(NC(=O)Cc2cccc(Cl)c2)sc1-c1ccc2c(/C=C/c3ccccn3)n[nH]c2c1 [Compound 10, (E)-2-(3-chlorophenyl)-N-(4-methyl-5-(3-(2-(pyridin-2-yl)vinyl)-1H-indazol-6-yl)thiazol-2-yl)acetamide]",4.1 µM
,0.016 µM,,0.961 µM,0.002 µM,,"CSCCC(N)C(=O)Nc1nc(C)c(-c2ccc3c(/C=C/c4ccccn4)n[nH]c3c2)s1 (centres unmarked) [Compound 15, (E)-2-amino-N-(4-methyl-5-(3-(2-(pyridin-2-yl)vinyl)-1H-indazol-6-yl)thiazol-2-yl)-4-(methylthio)butanamide]",0.594 µM
,0.323 µM,,1.35 µM,2.15 µM,,"Cc1nc(NC(=O)C2CCN(C)CC2)sc1-c1ccc2c(/C=C/c3ccccn3)n[nH]c2c1 [Compound 16, (E)-1-methyl-N-(4-methyl-5-(3-(2-(pyridin-2-yl)vinyl)-1H-indazol-6-yl)thiazol-2-yl)piperidin-4 carboxamide]",1.51 µM
,0.088 µM,,0.46 µM,0.004 µM,,"Cc1nc(NC(=O)C(C)N)sc1-c1ccc2c(/C=C/c3ccccn3)n[nH]c2c1 (centres unmarked) [Compound 17, (E)-2-amino-N-(4-methyl-5-(3-(2-(pyridin-2-yl)vinyl)-1H-indazol-6-yl)thiazol-2-yl)propionamide]",0.544 µM
,0.037 µM,,0.507 µM,0.006 µM,,"Cc1nc(NC(=O)C(N)CC(C)C)sc1-c1ccc2c(/C=C/c3ccccn3)n[nH]c2c1 (centres unmarked) [Compound 18, (E)-2-amino-4-methyl-N-(4-methyl-5-(3-(2-(pyridin-2-yl)vinyl)-1H-indazol-6-yl)thiazol-2-yl)pentanamide]",0.706 µM
,0.041 µM,,0.519 µM,0.004 µM,,"Cc1nc(NC(=O)C(C)C)sc1-c1ccc2c(/C=C/c3ccccn3)n[nH]c2c1 [Compound 19, (E)-N-(4-methyl-5-(3-(2-(pyridin-2-yl)vinyl)-1H-indazol-6-yl)thiazol-2-yl) isobutanamide]",1.58 µM
,0.037 µM,,0.361 µM,0.003 µM,,"Cc1nc(NC(=O)C(N)Cc2ccccc2)sc1-c1ccc2c(/C=C/c3ccccn3)n[nH]c2c1 (centres unmarked) [Compound 20, (E)-2-amino-N-(4-methyl-5-(3-(2-(pyridin-2-yl)vinyl)-1H-indazol-6-yl)thiazol-2-yl)-3-phenylpropionamide]",0.708 µM
,0.984 µM,,2.74 µM,0.068 µM,,"Cc1nc(NC(=O)CN2CCN(C)CC2)sc1-c1ccc2c(-c3cnn(C)c3)n[nH]c2c1 [Compound 21, N-(4-methyl-5-(3-(1-methyl-1H-pyrazol-4-yl)-1H-indazol-6-yl)thiazol-2-yl)-2-(4-methylpiperazin-1-yl)acetamide]",> 10 µM
,0.034 µM,,1.01 µM,0.002 µM,,"Cc1nc(NC(=O)C(O)CC(C)C)sc1-c1ccc2c(/C=C/c3ccccn3)n[nH]c2c1 (centres unmarked) [Compound 22, (E)-2-hydroxyl-4-methyl-N-(4-methyl-5-(3-(2-(pyridin-2-yl)vinyl)-1H-indazol-6-yl)thiazol-2-yl)pentanamide]",1.53 µM
,0.013 µM,,0.133 µM,0.0005 µM,,"Cc1nc(NC(=O)CN2CCN(C)CC2)sc1-c1ccc2c(-c3cnc(N)nc3)n[nH]c2c1 [Compound 23, N-(5-(3-(2-aminopyrimidin-5-yl)-1H-indazol-6-yl)-4-methylthiazol-2-yl)-2-(4-methylpiperazin-1-yl)acetamide]",1.56 µM
,0.114 µM,,3.21 µM,0.012 µM,,"Cc1nc(NC(=O)CN2CCN(C)CC2)sc1-c1ccc2c(-c3cccnc3)n[nH]c2c1 [Compound 24, N-(4-methyl-5-(3-(pyridin-3-yl)-1H-indazol-6-yl)thiazol-2-yl)-2-(4-methylpiperazin-1-yl)acetamide]",5.13 µM
,0.241 µM,,1.46 µM,0.018 µM,,"Cc1nc(NC(=O)CN2CCN(C)CC2)sc1-c1ccc2c(-c3cncc(F)c3)n[nH]c2c1 [Compound 25, N-(5-(3-(5-fluoropyridin-3-yl)-1H-indazol-6-yl)-4-methylthiazole-2-yl)-2-(4-methylpiperazin-1-yl)acetamide]",1.69 µM
,0.083 µM,,1.02 µM,0.026 µM,,"Cc1nc(NC(=O)CN2CCN(C)CC2)sc1-c1ccc2c(-c3cccc(F)c3)n[nH]c2c1 [Compound 26, N-(5-(3-(3-fluorophenyl)-1H-indazol-6-yl)-4-methylthiazol-2-yl)-2-(4-methylpiperazin-1-yl)acetamide]",1.04 µM
,0.001 µM,,0.094 µM,< 0.001 µM,,"Cc1nc(NC(=O)CC2CCN(C)CC2)sc1-c1ccc2c(/C=C/c3ccccn3)n[nH]c2c1 [Compound 27, (E)-N-(4-methyl-5-(3-(2-(pyridin-2-yl)vinyl)-1H-indazol-6-yl)thiazol-2-yl)-2-(1-methylpiperidin-4-yl)acetamide]",0.605 µM
,0.007 µM,,0.048 µM,0.0001 µM,,"Cc1nc(NC(=O)Cc2cccc(C(F)(F)F)c2)sc1-c1ccc2c(-c3cccnc3)n[nH]c2c1 [Compound 28, N-(4-methyl-5-(3-(pyridin-3-yl)-1H-indazol-6-yl)thiazol-2-yl)-2-(3-(trifluoromethyl)phenyl)acetamide]",2.49 µM
